Laboratory results reported in EP4603105A1, “PHARMACEUTICAL COMPOSITION CONTAINING CYCLIC COMPOUND HAVING SELECTIVE KRAS INHIBITORY EFFECT AGAINST HRAS AND NRAS” (CHUGAI SEIYAKU KABUSHIKI KAISHA, priority 2022, dated 2024).

Columns and labels:
[1] = target: GDP-bound NRAS wild-type protein (Homo sapiens, UniProt P01111); assay: Binding to NRAS by surface plasmon resonance (SPR), KD and KD ratio to KRAS
In short: (§1)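 GDP-loaded biotinylated Avi-tag RAS proteins (E. coli-expressed) captured on a Biotin CAPture chip at ~100–300 RU; single-cycle kinetics at 30°C, 100 µL/min, 75 s injections of rising compound concentrations. HBS pH 7.4 running buffer with 1 mM DTT, 10 mM MgCl2, 10 µM GDP, 4% DMSO. KD from 1:1 binding fit.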

[2] = target: HRAS wild-type protein (Homo sapiens, UniProt P01112); assay: Binding to HRAS by surface plasmon resonance (SPR), KD and KD ratio to KRAS
In short: as §1

[3] = tested on: human lung cancer strain NCI-H441; format: cell-based
In short: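 Readout: […] after the ATP-based reagent. Compound: serial dilutions in dimethyl sulfoxide.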

[4] = ratio of KD with respect to GDP-bound NRAS wild-type protein to KD with respect to KRAS
[5] = ratio of KD with respect to HRAS wild-type protein to KD with respect to KRAS
[6] = ratio of KD value for GDP-bound NRAS wild-type protein to KD value for KRAS (SPR)
[7] = ratio of KD value for HRAS wild-type protein to KD value for KRAS (SPR)

Chain of HRAS wild-type protein (P01112 whole entry): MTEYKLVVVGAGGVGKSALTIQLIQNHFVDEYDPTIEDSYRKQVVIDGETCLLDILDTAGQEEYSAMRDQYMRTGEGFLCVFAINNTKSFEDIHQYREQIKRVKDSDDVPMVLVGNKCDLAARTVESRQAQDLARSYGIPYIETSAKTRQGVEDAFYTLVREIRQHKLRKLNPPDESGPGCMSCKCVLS
Chain of GDP-bound NRAS wild-type protein (P01111 whole entry): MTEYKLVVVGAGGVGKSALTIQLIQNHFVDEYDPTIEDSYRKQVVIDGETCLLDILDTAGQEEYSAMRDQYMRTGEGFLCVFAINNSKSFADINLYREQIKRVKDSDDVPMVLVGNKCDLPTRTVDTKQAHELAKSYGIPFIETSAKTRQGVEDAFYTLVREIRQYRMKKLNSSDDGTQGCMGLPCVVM

SMILES	IC50 [3]	NRAS /KRAS [1, 4]	HRAS /KRAS [2, 5]	NRAS /KRAS [1, 6]	HRAS /KRAS [2, 7]
CCC[C@H]1C(=O)N[C@@H]([C@@H](C)CC)C(=O)N(C)CC(=O)N(C)[C@H]2C/C=C\CCN(C2=O)[C@@H](Cc2ccc(C(F)(F)F)cc2)C(=O)N(C)CC(=O)N[C@@H](CCc2cc(F)c(C(F)(F)F)c(F)c2)C(=O)N2C[C@H](OCC)C[C@H]2C(=O)NC2(CCC2)C(=O)N(C)[C@@H](C2CCCC2)C(=O)N(C)[C@H](C(=O)N(C)CCOC)CC(=O)N1C [PP1331]	13.9 nM	A (a compound having 10 or more and less than 20 is denoted as A)	A (a compound having 10 or more and less than 20 is denoted as A)		
CCO[C@@H]1C[C@H]2C(=O)NC3(CCC3)C(=O)N(C)[C@@H](C3CCCC3)C(=O)N(C)[C@H](C(=O)N3CCOCC3)CC(=O)N(C)[C@@H](CC)C(=O)N[C@@H]([C@@H](C)CC)C(=O)N(C)CC(=O)N(C)[C@H]3CC/C=C(/C)CN(C3=O)[C@@H](Cc3ccc(C(F)(F)F)cc3)C(=O)N(C)CC(=O)N[C@@H](CCc3cc(F)c(C(F)(F)F)c(F)c3)C(=O)N2C1 [PP1335]	736 nM	B (a compound having 3 or more and less than 10 is denoted as B)	B (a compound having 3 or more and less than 10 is denoted as B)		
CCCN(C)C(=O)[C@@H]1CC(=O)N(C)[C@@H](CC(C)C)C(=O)N[C@@H]([C@@H](C)CC)C(=O)N(C)CC(=O)N(C)[C@H]2C/C=C\CCN(C2=O)[C@@H](Cc2ccc(C(F)(F)F)cc2)C(=O)N(C)CC(=O)N[C@@H](CCc2cc(F)c(C(F)(F)F)c(F)c2)C(=O)N2C[C@H](OCC)C[C@H]2C(=O)NC2(CCC2)C(=O)N(C)[C@@H](C2CCCC2)C(=O)N1C [PP1387]	15.3 nM	A (a compound having 10 or more and less than 20 is denoted as A)	B (a compound having 3 or more and less than 10 is denoted as B)		
CCCN(C)C(=O)[C@@H]1CC(=O)N(C)[C@@H](CC2CC2)C(=O)N[C@@H]([C@@H](C)CC)C(=O)N(C)CC(=O)N(C)[C@H]2C/C=C\CCN(C2=O)[C@@H](Cc2ccc(C(F)(F)F)cc2)C(=O)N(C)CC(=O)N[C@@H](CCc2cc(F)c(C(F)(F)F)c(F)c2)C(=O)N2C[C@H](OCC)C[C@H]2C(=O)NC2(CCC2)C(=O)N(C)[C@@H](C2CCCC2)C(=O)N1C [PP1388]	8.8 nM	A (a compound having 10 or more and less than 20 is denoted as A)	B (a compound having 3 or more and less than 10 is denoted as B)		
CCC[C@H]1C(=O)N[C@@H]([C@@H](C)CC)C(=O)N(C)CC(=O)N(C)[C@H]2C/C=C\CCN(C2=O)[C@@H](Cc2ccc(C(F)(F)F)cc2)C(=O)N(C)CC(=O)N[C@@H](CCc2cc(F)c(C(F)(F)F)c(F)c2)C(=O)N2C[C@H](OCC)C[C@H]2C(=O)NC2(CCC2)C(=O)N(C)[C@@H](C2CCCC2)C(=O)N(C)[C@H](C(=O)N(C)CCC)CC(=O)N1C [PP1389]	2.4 nM	AA (a compound having 20 or more is denoted as AA)	A (a compound having 10 or more and less than 20 is denoted as A)		
CCO[C@@H]1C[C@H]2C(=O)NC3(CCC3)C(=O)N(C)[C@@H](C3CCCC3)C(=O)N(C)[C@H](C(=O)N(C)C)CC(=O)N(C)[C@@H](CC3CCCC3)C(=O)N[C@@H]([C@@H](C)CC)C(=O)N(C)CC(=O)N(C)[C@H]3C/C=C\CCN(C3=O)[C@@H](Cc3ccc(C)cc3)C(=O)N(C)CC(=O)N[C@@H](CCc3ccc(Cl)c(Cl)c3)C(=O)N2C1 [PP1487]	46.6 nM			A (a compound having 10 or more and less than 20 is denoted as A)	A (a compound having 10 or more and less than 20 is denoted as A)
CCO[C@@H]1C[C@H]2C(=O)NC3(CCC3)C(=O)N(C)[C@@H](C3CCCC3)C(=O)N(C)[C@H](C)CC(=O)N(C)[C@@H](CC3CC3)C(=O)N[C@@H]([C@@H](C)CC)C(=O)N(C)CC(=O)N(C)[C@H]3C/C=C\CCN(C3=O)[C@@H](Cc3ccc(F)cc3)C(=O)N(C)CC(=O)N[C@@H](CCc3cc(F)c(C(F)(F)F)c(F)c3)C(=O)N2C1 [PP1490]	48.9 nM			B (a compound having 3 or more and less than 10 is denoted as B)	B (a compound having 3 or more and less than 10 is denoted as B)
CCO[C@@H]1C[C@H]2C(=O)NC3(CCC3)C(=O)N(C)[C@@H](C3CCCC3)C(=O)N(C)[C@H](C(=O)N3CCOCC3)CC(=O)N(C)[C@@H](CC3CC3)C(=O)N[C@@H]([C@@H](C)CC)C(=O)N(C)CC(=O)N(C)[C@H]3C/C=C\CCN(C3=O)[C@@H](Cc3ccc(F)cc3)C(=O)N(C)CC(=O)N[C@@H](CCc3cc(F)c(C(F)(F)F)c(F)c3)C(=O)N2C1 [PP1496]	36.7 nM			A (a compound having 10 or more and less than 20 is denoted as A)	B (a compound having 3 or more and less than 10 is denoted as B)
CC[C@H](C)[C@@H]1NC(=O)[C@H](CC2CC2)N(C)C(=O)C[C@@H](C(=O)N(C)C)N(C)C(=O)[C@H](C2CCCC2)N(C)C(=O)C2(CCC2)NC(=O)[C@@H]2C[C@@H](F)CN2C(=O)[C@H](CCc2cc(F)c(C(F)(F)F)c(F)c2)NC(=O)CN(C)C(=O)[C@H](Cc2ccc(C(F)(F)F)cc2)N2CC/C=C\C[C@@H](C2=O)N(C)C(=O)CN(C)C1=O [PP1497]	10.7 nM			A (a compound having 10 or more and less than 20 is denoted as A)	A (a compound having 10 or more and less than 20 is denoted as A)
CC[C@H](C)[C@@H]1NC(=O)[C@H](CC2CC2)N(C)C(=O)C[C@@H](C(=O)N(C)C)N(C)C(=O)[C@H](C2CCCC2)N(C)C(=O)C2(CCC2)NC(=O)[C@@H]2C[C@@H](C(F)(F)F)CN2C(=O)[C@H](CCc2cc(F)c(C(F)(F)F)c(F)c2)NC(=O)CN(C)C(=O)[C@H](Cc2ccc(C(F)(F)F)cc2)N2CC/C=C\C[C@@H](C2=O)N(C)C(=O)CN(C)C1=O [PP1498]	10.3 nM			A (a compound having 10 or more and less than 20 is denoted as A)	A (a compound having 10 or more and less than 20 is denoted as A)

Further compounds by falling IC50 [3], results first:

IC50 [3]	SMILES	NRAS /KRAS [1, 4]	HRAS /KRAS [2, 5]	NRAS /KRAS [1, 6]	HRAS /KRAS [2, 7]
980 nM	CCO[C@@H]1C[C@H]2C(=O)NC3(CCC3)C(=O)N(C)[C@@H](C3CCCC3)C(=O)N(C)[C@H](C(=O)N3CCOCC3)CC(=O)N(C)[C@@H](CC(C)C)C(=O)N[C@@H]([C@@H](C)CC)C(=O)N(C)CC(=O)N(C)[C@H]3CC/C=C(/C)CN(C3=O)[C@@H](Cc3ccc(C(F)(F)F)cc3)C(=O)N(C)CC(=O)N[C@@H](CCc3cc(F)c(C(F)(F)F)c(F)c3)C(=O)N2C1 [PP1333]	C (A compound having a KD ratio of 0.1 or more and less than 3 is denoted as C)	B (a compound having 3 or more and less than 10 is denoted as B)		
968 nM	CCO[C@@H]1C[C@H]2C(=O)NC3(CCC3)C(=O)N(C)[C@@H](C3CCCC3)C(=O)N(C)[C@H](C(=O)N(C)C)CC(=O)N(C)[C@@H](CC)C(=O)N[C@@H]([C@@H](C)CC)C(=O)N(C)CC(=O)N(C)[C@H]3CC/C=C(/C)CN(C3=O)[C@@H](Cc3ccc(C(F)(F)F)cc3)C(=O)N(C)CC(=O)N[C@@H](CCc3cc(F)c(C(F)(F)F)c(F)c3)C(=O)N2C1 [PP1334]	B (a compound having 3 or more and less than 10 is denoted as B)	B (a compound having 3 or more and less than 10 is denoted as B)		
79.6 nM	CCO[C@@H]1C[C@H]2C(=O)NC3(CCC3)C(=O)N(C)[C@@H](C(CC)CC)C(=O)N(C)[C@H](C(=O)N(C)CCOC)CC(=O)N(C)[C@@H](CC)C(=O)N[C@@H]([C@@H](C)CC)C(=O)N(C)CC(=O)N(C)[C@H]3C/C=C\CCN(C3=O)[C@@H](Cc3ccc(C(F)(F)F)cc3)C(=O)N(C)CC(=O)N[C@@H](CCc3cc(F)c(C(F)(F)F)c(F)c3)C(=O)N2C1 [PP1330]	AA (a compound having 20 or more is denoted as AA)	A (a compound having 10 or more and less than 20 is denoted as A)		
23.2 nM	CCO[C@@H]1C[C@H]2C(=O)NC3(CCC3)C(=O)N(C)[C@@H](C3CCCC3)C(=O)N(C)[C@H](C(=O)N(C)C)CC(=O)N(C)[C@@H](CC(C)C)C(=O)N[C@@H]([C@@H](C)CC)C(=O)N(C)CC(=O)N(C)[C@H]3C/C=C\CCN(C3=O)[C@@H](Cc3ccc(F)cc3)C(=O)N(C)CC(=O)N[C@@H](CCc3cc(F)c(C(F)(F)F)c(F)c3)C(=O)N2C1 [PP1488]			A (a compound having 10 or more and less than 20 is denoted as A)	B (a compound having 3 or more and less than 10 is denoted as B)
5.5 nM	CC[C@H](C)[C@@H]1NC(=O)[C@H](CC2CC2)N(C)C(=O)C[C@@H](C(=O)N(C)C)N(C)C(=O)[C@H](C2CCCC2)N(C)C(=O)C2(CCC2)NC(=O)[C@@H]2C[C@H](C)CN2C(=O)[C@H](CCc2cc(F)c(C(F)(F)F)c(F)c2)NC(=O)CN(C)C(=O)[C@H](Cc2ccc(C(F)(F)F)cc2)N2CC/C=C\C[C@@H](C2=O)N(C)C(=O)CN(C)C1=O [PP1499]			A (a compound having 10 or more and less than 20 is denoted as A)	B (a compound having 3 or more and less than 10 is denoted as B)
